Measured values as given in article PMC11271967, “An inhibitory mechanism of AasS, an exogenous fatty acid scavenger: Implications for re-sensitization of FAS II antimicrobials” (PLOS Pathogens, 2024).

Test system: AasS-expressing E. coli ΔbioC strain
Assay: AasS-based bypass of biotin synthesis, bacterial viability on M9 agar
Type: cell-based, Escherichia coli
Conditions: M9 agar with E-C7 as sole carbon source; 0, 50, 100, 500 μM tested
Source text: Fig 4 Integrated evidence for the inhibition of AasS action with E-C7 fatty acid by C10-AMS compound. A. Schematic diagram of AasS-catalyzed ligation of E-C7 with holo-ACP recipient to produce E-C7-ACP. […] A representative photograph of three independent trials was given. C. Relatively-quantitative analysis (for the inhibitory efficacy of C10-AMS on AasS-catalyzed E-C7-ACP production. As for AasS reaction (panel B), unlike the three components that are at constant levels, namely (i) AasS (31.25 nM), (ii) E-C7 (600 μM), and (iii) ACP (3 μg), C10-AMS inhibitor was supplemented at varied ratio in relative to the AasS enzyme (ranging from 0:1, 25:1, 50:1, 100:1, 200:1, 300:1, 400:1, to 500:1). The ImageJ software was applied to measure the relative percentage (%) of E-C7 fatty acylation in each AasS reaction. The resultant graphs were plotted from three independent experiments, in which the output was expressed as means ± SD (standard deviations). D. Schematic diagram for C10-AMS inhibition of AasS-based bypass of biotin requirement by the E. coli ΔbioC biotin auxotroph on the non-permissive condition. […] Log-phase cultures in a series of 10-fold dilution (shown in panel on right hand), were spotted on the x-gal-containing M9 agar plates supplemented with C10-AMS inhibitor at varied levels (0, 50, 100, to 500 μM). The addition of x-gal substrate enabled the occurrence of blue colonies for better photographing, and viable colonies were highlighted with yellow arrows.
Given that AasS ligates E-C7 fatty acid with holo-ACP, giving E-C7-ACP, an alternative precursor for bacterial biotin synthesis, plasmid-borne aasS expression in ΔbioC biotin auxotroph strain is assumed to overcome the requirement of the primary BioC step [58, 83]. Apart from its WT, three single mutants of AasS (D411A, R426A, and K432A) were examined in vivo, of which the compromised activity is presumably proportional to the varied viability of the ΔbioC reporter strains on the non-permissive M9 growth condition. To test its inhibitory effect, the C10-AMS inhibitor in a series of dilution was supplemented. […]

## CCCCCCCCCC(=O)NS(=O)(=O)OC[C@H]1O[C@@H](n2cnc3c(N)ncnc32)[C@H](O)[C@@H]1O [C10-AMS]
  C10-AMS level that markedly impaired AasS-based bypass of biotin synthesis: over 100 μM
